Species on record: Rattus norvegicus
Assay: Open TG-GATES - Regimen: Single
Type: toxicity, organism-based, Sprague-Dawley
Set-up: regimen Single, gender Male, age 6 weeks
Settings: in vivo, ip, 0.1 mg/kg, route intraperitoneal injection, dose 100 ug/Kg, dose level Middle; for APTT / Bas / Eos / Fbg / Hb / Ht / Lym / MCH / MCHC / MCV / Mono / Neu / PT / Plat / RBC / Ret / WBC: tissue Blood; for KIDNEY_L / KIDNEY_R / KIDNEY_TOTAL: tissue Kidney; for LIVER: tissue Liver; for A/G / ALP / ALT / AST / BUN / CRE / Ca / Cl / DBIL / GLC / IP / K / LDH / Na / PL / RALB / TBIL / TC / TG / TP / gamma-GTP: tissue Plasma

In the case of `CC(=O)N[C@H]1[C@@H](O[C@@H]2O[C@H](CC(O)[C@H]3O[C@@H](n4ccc(=O)[nH]c4=O)[C@H](O)[C@@H]3O)[C@H](O)[C@H](O)[C@H]2NC(=O)/C=C/CC(C)C)O[C@H](CO)[C@@H](N)[C@@H]1O` (some centres not stated) [TUNICAMYCIN], the TERMINAL_BW (3 h) is reported as 221.2 g, the APTT (3 h) is reported as 23.1 s and the Bas (3 h) is reported as 0%. For the same molecule, the Eos (3 h) was 0.6%, the Fbg (3 h) was 292.6 mg/dL and the Hb (3 h) was 12.8 g/dL. It also gave a Ht (3 h) of 39.3%, a Lym (3 h) of 71.2% and an MCH (3 h) of 20.2 pg. It also gave an MCHC (3 h) of 32.6%, an MCV (3 h) of 62 fL and a Mono (3 h) of 3.2%. For the same molecule, the Neu (3 h) was 24.2%, the PT (3 h) was 15.9 s and the Plat (3 h) was 122.6 x10_4/uL. For the same molecule, the RBC (3 h) was 636.4 x10_4/ul, the Ret (3 h) was 8.1% and the WBC (3 h) was 97.2 x10_2/uL. The KIDNEY_L (3 h) was 0.9 g, the KIDNEY_R (3 h) was 0.9 g and the KIDNEY_TOTAL (3 h) was 1.9 g. For the same molecule, the LIVER (3 h) was 10.4 g, the A/G (3 h) was 1.2 and the ALP (3 h) was 1559 IU/L. It also gave an ALT (3 h) of 38.8 IU/L, an AST (3 h) of 76.8 IU/L and a BUN (3 h) of 13 mg/dL. It also gave a CRE (3 h) of 0.2 mg/dL, a Ca (3 h) of 10.6 mg/dL and a Cl (3 h) of 106.8 meq/L. For the same molecule, the DBIL (3 h) was 0 mg/dL, the GLC (3 h) was 167.2 mg/dL and the IP (3 h) was 8.2 mg/dL. The K (3 h) was 4.2 meq/L, the LDH (3 h) was 158.2 IU/L and the Na (3 h) was 142.8 meq/L. For the same molecule, the PL (3 h) was 122.8 mg/dL, the RALB (3 h) was 2.9 g/dL and the TBIL (3 h) was 0.012 mg/dL. For the same molecule, the TC (3 h) was 70.4 mg/dL, the TG (3 h) was 70.2 mg/dL and the TP (3 h) was 5.3 g/dL. For the same molecule, the gamma-GTP (3 h) was 1.4 IU/L, the TERMINAL_BW (6 h) was 216.8 g and the APTT (6 h) was 22.4 s. It also gave a Bas (6 h) of 0%, an Eos (6 h) of 0.4% and a Fbg (6 h) of 315.6 mg/dL. The Hb (6 h) was 13.2 g/dL, the Ht (6 h) was 40.1% and the Lym (6 h) was 67%. The MCH (6 h) was 21 pg, the MCHC (6 h) was 33% and the MCV (6 h) was 63.7 fL. For the same molecule, the Mono (6 h) was 2%, the Neu (6 h) was 30% and the PT (6 h) was 15.7 s. For the same molecule, the Plat (6 h) was 110 x10_4/uL, the RBC (6 h) was 630.4 x10_4/ul and the Ret (6 h) was 7.9%. For the same molecule, the WBC (6 h) was 95.8 x10_2/uL, the KIDNEY_L (6 h) was 1 g and the KIDNEY_R (6 h) was 1 g. It also gave a KIDNEY_TOTAL (6 h) of 1.9 g, an LIVER (6 h) of 9.2 g and an A/G (6 h) of 1.2. The ALP (6 h) was 1277.4 IU/L, the ALT (6 h) was 39.8 IU/L and the AST (6 h) was 70.4 IU/L. The BUN (6 h) was 11 mg/dL, the CRE (6 h) was 0.2 mg/dL and the Ca (6 h) was 10.8 mg/dL. The Cl (6 h) was 106.2 meq/L, the DBIL (6 h) was 0 mg/dL and the GLC (6 h) was 175 mg/dL. The IP (6 h) was 9.3 mg/dL, the K (6 h) was 4.2 meq/L and the LDH (6 h) was 161.6 IU/L. It also gave a Na (6 h) of 141.4 meq/L, a PL (6 h) of 127.2 mg/dL and an RALB (6 h) of 3 g/dL. For the same molecule, the TBIL (6 h) was 0.022 mg/dL, the TC (6 h) was 74 mg/dL and the TG (6 h) was 51.8 mg/dL. It also gave a TP (6 h) of 5.3 g/dL, a gamma-GTP (6 h) of 1.2 IU/L and a TERMINAL_BW (9 h) of 221.7 g. For the same molecule, the APTT (9 h) was 23.2 s, the Bas (9 h) was 0% and the Eos (9 h) was 1%. The Fbg (9 h) was 305.8 mg/dL, the Hb (9 h) was 12.9 g/dL and the Ht (9 h) was 39.8%. The Lym (9 h) was 81%, the MCH (9 h) was 20.7 pg and the MCHC (9 h) was 32.4%. For the same molecule, the MCV (9 h) was 64 fL, the Mono (9 h) was 2.2% and the Neu (9 h) was 15.4%. It also gave a PT (9 h) of 15.8 s, a Plat (9 h) of 123.1 x10_4/uL and an RBC (9 h) of 623 x10_4/ul. The Ret (9 h) was 7.8%, the WBC (9 h) was 86.6 x10_2/uL and the KIDNEY_L (9 h) was 0.9 g. The KIDNEY_R (9 h) was 1 g, the KIDNEY_TOTAL (9 h) was 1.9 g and the LIVER (9 h) was 9.2 g. The A/G (9 h) was 1.2, the ALP (9 h) was 1517.2 IU/L and the ALT (9 h) was 35.6 IU/L. It also gave an AST (9 h) of 71 IU/L, a BUN (9 h) of 12.4 mg/dL and a CRE (9 h) of 0.1 mg/dL. The Ca (9 h) was 10.9 mg/dL, the Cl (9 h) was 106.2 meq/L and the DBIL (9 h) was 0 mg/dL. It also gave a GLC (9 h) of 173.6 mg/dL, an IP (9 h) of 9.2 mg/dL and a K (9 h) of 4.2 meq/L. For the same molecule, the LDH (9 h) was 137.4 IU/L, the Na (9 h) was 141.8 meq/L and the PL (9 h) was 124.8 mg/dL. For the same molecule, the RALB (9 h) was 2.9 g/dL, the TBIL (9 h) was 0.014 mg/dL and the TC (9 h) was 70.2 mg/dL. For the same molecule, the TG (9 h) was 76 mg/dL, the TP (9 h) was 5.3 g/dL and the gamma-GTP (9 h) was 1 IU/L. The TERMINAL_BW (24 h) was 228.5 g, the APTT (24 h) was 22.4 s and the Bas (24 h) was 0%. For the same molecule, the Eos (24 h) was 0.8%, the Fbg (24 h) was 332.8 mg/dL and the Hb (24 h) was 13.3 g/dL. It also gave a Ht (24 h) of 41.4%, a Lym (24 h) of 80.6% and an MCH (24 h) of 19.9 pg. It also gave an MCHC (24 h) of 32%, an MCV (24 h) of 62 fL and a Mono (24 h) of 2.6%. For the same molecule, the Neu (24 h) was 15.2%, the PT (24 h) was 15.8 s and the Plat (24 h) was 105.4 x10_4/uL. It also gave an RBC (24 h) of 668 x10_4/ul, a Ret (24 h) of 7.2% and a WBC (24 h) of 84.3 x10_2/uL. It also gave a KIDNEY_L (24 h) of 0.9 g, a KIDNEY_R (24 h) of 1 g and a KIDNEY_TOTAL (24 h) of 1.9 g. It also gave an LIVER (24 h) of 10.2 g, an A/G (24 h) of 1.2 and an ALP (24 h) of 1529.6 IU/L. For the same molecule, the ALT (24 h) was 46.2 IU/L, the AST (24 h) was 74.2 IU/L and the BUN (24 h) was 15.2 mg/dL. It also gave a CRE (24 h) of 0.1 mg/dL, a Ca (24 h) of 10.5 mg/dL and a Cl (24 h) of 105.4 meq/L. For the same molecule, the DBIL (24 h) was 0 mg/dL, the GLC (24 h) was 181 mg/dL and the IP (24 h) was 7.3 mg/dL. For the same molecule, the K (24 h) was 4.2 meq/L, the LDH (24 h) was 152.8 IU/L and the Na (24 h) was 142 meq/L. For the same molecule, the PL (24 h) was 143.8 mg/dL, the RALB (24 h) was 3.1 g/dL and the TBIL (24 h) was 0.014 mg/dL. For the same molecule, the TC (24 h) was 77.6 mg/dL, the TG (24 h) was 78.2 mg/dL and the TP (24 h) was 5.6 g/dL. The gamma-GTP (24 h) was 1.4 IU/L.

— ChEMBL document CHEMBL3885861, “Open TG-GATES”
